ChEMBL document CHEMBL1126695, “Orally active water-soluble N,O-acyl transfer products of a beta,gamma-bishydroxyl amide containing renin inhibitor” (J Med Chem, 1993)
≈ marks a conversion by molar mass, not a printed value. One block for each compound: values may come before it.

Experiments:
Type in all cases: ADME
[1] = Evaluated for the solubility in water at 5.8 pH of filtered solution; conditions: pH 5.8, read-out: S
[2] = Evaluated the half life period in CH3CN / buffer, pH 7.4 at 37 degree C
[3] = Evaluated the half life period in distilled water at room temperature
[4] = Evaluated for the solubility in 0.10 N HCl at 1.6 pH of filtered solution; conditions: pH 1.6, read-out: S
[5] = Evaluated for the solubility in pH 6.0 buffer suspended at 5 mg / mL at 6.0 pH of filtered solution
[6] = Evaluated for the solubility in pH 7.4 buffer suspended at 5 mg / mL at 7.4 pH of filtered solution
[7] = Evaluated for the solubility in water at 4.8 pH of filtered solution; conditions: pH 4.8, read-out: S
[8] = Evaluated for the solubility in 0.10 N HCl at 1.5 pH of filtered solution; conditions: pH 1.5, read-out: S
[9] = Evaluated for the solubility in water at 3.3 pH of filtered solution; conditions: pH 3.3, read-out: S
[10] = Evaluated for the solubility in 0.10 N HCl at 1.7 pH of filtered solution; conditions: pH 1.7, read-out: S
[11] = Evaluated for the solubility in water at 3.2 pH of filtered solution; conditions: pH 3.2, read-out: S

Structure (SMILES): CC(C)C[C@H](O)C(O)[C@H](CC1CCCCC1)NC(=O)[C@H](Cc1csc(N)n1)NC(=O)[C@H](Cc1ccccc1)NS(=O)(=O)N1CCOCC1 (stereo partly drawn)
solubility [1]: 2 µg/mL (≈ 2.82 µM)

Structure (SMILES): CC(C)C[C@H](O)C(O)[C@H](CC1CCCCC1)NC(=O)[C@H](Cc1csc(N)n1)NC(=O)[C@H](Cc1ccccc1)NS(=O)(=O)N1CCOCC1.Cl (stereo partly drawn)
solubility [4]: 6600 µg/mL | solubility [5]: 1 µg/mL | solubility [6]: 1 µg/mL | solubility [7]: 20 µg/mL

Structure (SMILES): CC(C)C[C@H](OC(=O)[C@H](Cc1csc(N)n1)NC(=O)[C@H](Cc1ccccc1)NS(=O)(=O)N1CCOCC1)C(O)[C@@H](N)CC1CCCCC1.Cl (stereo partly drawn)
solubility [5]: 1940 µg/mL | solubility [10]: 71300 µg/mL | solubility [11]: 20900 µg/mL | solubility [6]: 300 µg/mL

More lines, now with the values ahead:

half-life [2]: 1 min | half-life [3]: > 96 h
Structure (SMILES): CC(C)C[C@H](O)C(OC(=O)[C@H](Cc1csc(N)n1)NC(=O)[C@H](Cc1ccccc1)NS(=O)(=O)N1CCOCC1)[C@@H](N)CC1CCCCC1 (stereo partly drawn)

solubility [8]: 54600 µg/mL | solubility [9]: 17600 µg/mL
Structure (SMILES): CC(C)C[C@H](O)C(OC(=O)[C@H](Cc1csc(N)n1)NC(=O)[C@H](Cc1ccccc1)NS(=O)(=O)N1CCOCC1)[C@@H](N)CC1CCCCC1.Cl (stereo partly drawn)
